The record followed here is patent US20080125397A1, “2 (SULFONYL)ETHYL N,N,N',N' tetrakis(2 chloroethyl)phosphorodia” (Telik, Inc., priority 2006, published 2008).

In series [1] the test system is LNCaP (prostate carcinoma). In words: Cytotoxicity/growth inhibition assay (CellTiter-Glo), LNCaP. It counts as cell-based, human. As to the method:
(§1) The human cancer cell lines DLD-1 (colorectal adenocarcinoma), LNCaP (prostate carcinoma), and MIA PaCa-2 (pancreatic carcinoma) were obtained from the American Type Culture Collection, Manassas, Va., U.S.A., and MX-1 (breast carcinoma) from the National Cancer Institute, Bethesda, Md., U.S.A. The CellTiter-Glo assay kit was obtained from Promega Corporation, Madison, Wis., U.S.A. All products were used in accordance with manufacturer's directions. All assays were conducted in triplicate wells, with dimethyl sulfoxide (DMSO) solvent control. The extent of cell growth was expressed as a percentage of the signal from the solvent control wells.
(§2) Log-phase cells were trypsinized, collected by centrifugation, and resuspended in a small volume of fresh medium, and the density of viable cells was determined following Trypan Blue staining. Cells were diluted in fresh media (3×10^3 cells/mL for DLD-1, MIA PaCa-2, and MX-1, and 6×10^3 cells/mL for LNCaP), and added at 150 μL/well to 96-well plates, and incubated for several hours to allow attachment in the case of adherent cells. […] After incubation for 10 minutes at room temperature, and the plate was read with a luminometer.
(In general: In ATP-based viability assays light output follows the ATP content of the culture.)

Series [2] relates to MIA PaCa-2 (pancreatic carcinoma). Nature of the series: Cytotoxicity/growth inhibition assay (CellTiter-Glo), MIA PaCa-2. It counts as cell-based, human. On the procedure: as §1, §2
The subject of series [3] is DLD-1 (colorectal adenocarcinoma). In words: Cytotoxicity/growth inhibition assay (CellTiter-Glo), DLD-1. The series is classed as cell-based, human. On the procedure:
as §1, §2

Series [4] in a line: Safety at the doses tested in the in vivo examples. Also noted: species or system athymic nu/nu mice. As to the method: (§3) Female athymic nu/nu mice (Harlan, Indianapolis, Ind., U.S.A. or similar vendor), 6-8 weeks old (approximately 20 g), were implanted in the mammary fat pad of the right fore flank with 20-30 mg pieces of MX-1 tumor harvested from similar nu/nu mice that had previously been implanted with the MX-1 tumor. […] Groups of mice were treated with 2-({2-oxo-2-[(pyridin-3-ylmethyl)amino]ethyl}sulfonyl)ethyl N,N,N′,N′-tetrakis(2-chloroethyl)phosphorodiamidate hydrochloride at 50 and 100 mg/Kg, dissolved in aqueous 5% dextrose, by intraperitoneal injection once/day for 5 consecutive days, with vehicle control. Tumor mass, estimated from volume, was measured twice weekly; and tumor growth inhibition was measured when the average tumor mass in the control group first exceeded 2000 mg.
(§4) A study similar to that described in In vivo Example 1 was performed using oral administration of 2-({2-oxo-2-[(pyridin-3-ylmethyl)amino]ethyl}sulfonyl)ethyl N,N,N′,N′-tetrakis(2-chloroethyl)phosphorodiamidate hydrochloride. A group of mice was treated with the compound, dissolved in water, at 150 mg/Kg by gavage once/day for 5 consecutive days (with vehicle control).
A study similar to that described in In vivo Example 1 was performed using intravenous administration of 2-({2-oxo-2-[(pyridin-3-ylmethyl)amino]ethyl}sulfonyl)ethyl N,N,N′,N′-tetrakis(2-chloroethyl)phosphorodiamidate hydrochloride. […]

The test system of a further series is MX-1 (breast carcinoma). Nature of the series: Cytotoxicity/growth inhibition assay (CellTiter-Glo), MX-1. The series is classed as cell-based, human. As to the method: as §1, §2
A short description of another series: Solubility in water. It counts as physicochemical.
Series [5] relates to MX-1 tumor. Nature of the series: MX-1 xenograft assay, oral administration. The series is classed as in vivo, athymic nu/nu mice. The following applies: 150 mg/Kg by gavage once/day for 5 consecutive days. On the procedure:
as §3, §4

The test system of the next series is MIA PaCa-2 tumor. In words: MiaPaCa-2 xenograft assay, intraperitoneal administration. It counts as in vivo, athymic nu/nu mice. The following applies: 100 mg/Kg intraperitoneal once/day for 7 consecutive days. On the procedure: Male athymic nu/nu mice, 6-8 weeks old (approximately 20 g), were implanted subcutaneously in the right fore flank with 20-30 mg pieces of MIA PaCa-2 tumor harvested from similar nu/nu mice that had previously been implanted with the MIA PaCa-2 tumor. […] A group of mice was treated with 2-({2-oxo-2-[(pyridin-3-ylmethyl)-amino]ethyl}sulfonyl)ethyl N,N,N′,N′-tetrakis(2-chloroethyl)phosphorodiamidate hydrochloride, dissolved in aqueous 5% dextrose, at 100 mg/Kg by intraperitoneal injection once/day for 7 consecutive days, with vehicle control.

The subject of series [6] is MX-1 tumor. Nature of the series: MX-1 xenograft assay, intravenous administration. The series is classed as in vivo, athymic nu/nu mice. On the procedure:
as §3
A study similar to that described in In vivo Example 1 was performed using intravenous administration of 2-({2-oxo-2-[(pyridin-3-ylmethyl)amino]ethyl}sulfonyl)ethyl N,N,N′,N′-tetrakis(2-chloroethyl)phosphorodiamidate hydrochloride. A group of mice was treated with the compound, dissolved in aqueous 5% dextrose, at 40 and 80 mg/Kg by tail vein injection once/day for 5 consecutive days (with vehicle control).

Series [7] deals with MX-1 tumor. Nature of the series: MX-1 xenograft assay, intraperitoneal administration. It counts as in vivo, athymic nu/nu mice. As to the method: as §3

As for `O=C(CS(=O)(=O)CCOP(=O)(N(CCCl)CCCl)N(CCCl)CCCl)NCc1cccnc1` [2-({2-oxo-2-[(pyridin-3-ylmethyl)amino]ethyl}sulfonyl)ethyl N,N,N′,N′-tetrakis(2-chloroethyl)phosphorodiamidate], the “potency compared with canfosfamide” value (in series [1]; in series [2] (MIA PaCa-2); in series [3] (DLD-1); in the series on MX-1 (breast carcinoma) (MX-1)) was “at least as potent as canfosfamide” in each case. Moreover, the safety/toxicity result in series [4] was “safe and non-toxic”.

For `O=C(CS(=O)(=O)CCOP(=O)(N(CCCl)CCCl)N(CCCl)CCCl)NCc1cccnc1.O=C(O)C(O)C(O)C(=O)O` [tartrate salt, 2-({2-Oxo-2-[(pyridin-3-ylmethyl)amino]ethyl}sulfonyl)ethyl N,N,N′,N′-tetrakis(2-chloroethyl)phosphorodiamidate tartrate], the solubility (usually the concentration that dissolves in the medium under given conditions) in the series “Solubility in water” was not below 5 mg/mL.

On to `Cl.O=C(CS(=O)(=O)CCOP(=O)(N(CCCl)CCCl)N(CCCl)CCCl)NCc1cccnc1` [2-({2-Oxo-2-[(pyridin-3-ylmethyl)amino]ethyl}sulfonyl)ethyl N,N,N′,N′-tetrakis(2-chloroethyl)phosphorodiamidate hydrochloride], for which the IC50 – broadly, the concentration at which inhibition is half-maximal – in [1] (Homo sapiens, 96 h, 4 days culture) was 67 µM; in [2] (Homo sapiens, 72 h, MIA PaCa-2, 3 days culture), 16 µM; in [3] (Homo sapiens, 96 h, DLD-1, 4 days culture), 12 µM; in the series with MX-1 (breast carcinoma) (Homo sapiens, 72 h, MX-1, 3 days culture), 22 µM. The “inhibition of tumor growth compared to vehicle” value in the series with MX-1 tumor [5] is 67%; in the series with MIA PaCa-2 tumor it was 92%; with MX-1 tumor [6] (40 mg/Kg tail vein injection once/day for 5 consecutive days) it was 39%; with MX-1 tumor [6] (80 mg/Kg tail vein injection once/day for 5 consecutive days), 98%; in the series on MX-1 tumor [7] (50 mg/Kg intraperitoneal once/day for 5 consecutive days), 28%; with MX-1 tumor [7] (100 mg/Kg intraperitoneal once/day for 5 consecutive days), 95%. This compound had a solubility in the series “Solubility in water” not below 10 mg/mL.
